Tested on: peripheral blood mononuclear cells (PBMC)
Test: qPCR (TaqMan) measurement of mRNA expression in PBMC treated with compound A
Assay type: cell-based, human
Details: untreated cells = 1, corrected by 18S rRNA
Description: Since it is not easy to obtain a cancer tissue clinically, the measurement of the marker in hemocytes readily obtainable in peripheral blood would be more useful. Specifically peripheral blood was taken from three normal individuals (volunteers) and peripheral blood mononuclear cells were purified and treated with compound A, followed by measurement of change in expression of the gene (mRNA) by qPCR.
RNA samples were first prepared in accordance with the steps described in Example 2 (1) and (2).
Subsequently RNA was prepared to 30 ng/μl and cDNA was synthesized by using TaqMan Reverse Transcription Reagents (Applied Biosystems). The expression level of SLC25A19, TRAPPC4, GTF2H1, Id1, EDN1, ZCCHC6, HNRPA2B1, and HSPA9B was amplified with TaqMan Gene Expression Assays (catalog numbers below) (Applied Biosystems) as a probe by using TaqMan Universal PCR Master Mix (Applied Biosystems).
Reagents were prepared in accordance with the protocol, and measurement was carried out with ABI7900 (Applied Biosystems). Measured values were corrected by using the expression level of 18S rRNA (Hs99999901_s1, Applied Biosystems) as an internal control. The expression level of each gene was calculated with the expression level in the cells untreated with compound A as 1. […] In Table 3, for each gene evaluated, abbreviated name (Gene Symbol), accession number (Accession), alias name (Synonym), gene name (Gene Name), and the expression level upon treatment with varied concentration of E7107 (E7107 (nM)) were respectively shown.

CCC(O)C(C)C1OC1CC(C)(O)/C=C/C=C(\C)C1OC(=O)CC(O)CCC(C)(O)C(OC(=O)N2CCN(C3CCCCCC3)CC2)/C=C/C1C (centres unmarked) [E7107, (8E,12E,14E)-7-((4-Cycloheptylpiperazin-1-yl)carbonyl)oxy-3,6,16,21-tetrahydroxy-6,10,12,16,20-pentamethyl-18,19-epoxytricosa-8,12,14-trien-11-olide]
EDN1 mRNA expression level (qPCR) (3 nM): 0.45 | GTF2H1 mRNA expression level (qPCR) (3 nM): 0.22 | HNRPA2B1 mRNA expression level (qPCR) (3 nM): 0.48 | HSPA9 mRNA expression level (qPCR) (3 nM): 0.39 | ID1 mRNA expression level (qPCR) (3 nM): 0.5 | SLC25A19 mRNA expression level (qPCR) (3 nM): 0.11 | TRAPPC4 mRNA expression level (qPCR) (3 nM): 0.12 | ZCCHC8 mRNA expression level (qPCR) (3 nM): 0.49 | EDN1 mRNA expression level (qPCR) (10 nM): 0.2 | GTF2H1 mRNA expression level (qPCR) (10 nM): 0.07 | HNRPA2B1 mRNA expression level (qPCR) (10 nM): 0.29 | HSPA9 mRNA expression level (qPCR) (10 nM): 0.26 | ID1 mRNA expression level (qPCR) (10 nM): 0.15 | SLC25A19 mRNA expression level (qPCR) (10 nM): 0.02 | TRAPPC4 mRNA expression level (qPCR) (10 nM): 0.02 | ZCCHC8 mRNA expression level (qPCR) (10 nM): 0.19 | EDN1 mRNA expression level (qPCR) (30 nM): 0.11 | GTF2H1 mRNA expression level (qPCR) (30 nM): 0.05 | HNRPA2B1 mRNA expression level (qPCR) (30 nM): 0.24 | HSPA9 mRNA expression level (qPCR) (30 nM): 0.17 | ID1 mRNA expression level (qPCR) (30 nM): 0.09 | SLC25A19 mRNA expression level (qPCR) (30 nM): 0.01 | TRAPPC4 mRNA expression level (qPCR) (30 nM): 0.01

From patent US20100086931A1, “METHOD FOR ASSAYING ACTION OF ANTITUMOR AGENT USING DECREASE IN GENE EXPRESSION LEVEL AS INDEX” (Eisai R&D Management Co., Ltd., priority 2007, published 2010)
